Source: ChEMBL document CHEMBL1127062 (J Med Chem, 1993)

Target: Ryanodine receptor 1 (Oryctolagus cuniculus, UniProt P11716)
Experiment: Affinity for sarcoplasmic reticular calcium release channel (SR CRC) of rabbit skeletal membrane vesicles

Ryanodine receptor 1, sequence (P11716 whole entry): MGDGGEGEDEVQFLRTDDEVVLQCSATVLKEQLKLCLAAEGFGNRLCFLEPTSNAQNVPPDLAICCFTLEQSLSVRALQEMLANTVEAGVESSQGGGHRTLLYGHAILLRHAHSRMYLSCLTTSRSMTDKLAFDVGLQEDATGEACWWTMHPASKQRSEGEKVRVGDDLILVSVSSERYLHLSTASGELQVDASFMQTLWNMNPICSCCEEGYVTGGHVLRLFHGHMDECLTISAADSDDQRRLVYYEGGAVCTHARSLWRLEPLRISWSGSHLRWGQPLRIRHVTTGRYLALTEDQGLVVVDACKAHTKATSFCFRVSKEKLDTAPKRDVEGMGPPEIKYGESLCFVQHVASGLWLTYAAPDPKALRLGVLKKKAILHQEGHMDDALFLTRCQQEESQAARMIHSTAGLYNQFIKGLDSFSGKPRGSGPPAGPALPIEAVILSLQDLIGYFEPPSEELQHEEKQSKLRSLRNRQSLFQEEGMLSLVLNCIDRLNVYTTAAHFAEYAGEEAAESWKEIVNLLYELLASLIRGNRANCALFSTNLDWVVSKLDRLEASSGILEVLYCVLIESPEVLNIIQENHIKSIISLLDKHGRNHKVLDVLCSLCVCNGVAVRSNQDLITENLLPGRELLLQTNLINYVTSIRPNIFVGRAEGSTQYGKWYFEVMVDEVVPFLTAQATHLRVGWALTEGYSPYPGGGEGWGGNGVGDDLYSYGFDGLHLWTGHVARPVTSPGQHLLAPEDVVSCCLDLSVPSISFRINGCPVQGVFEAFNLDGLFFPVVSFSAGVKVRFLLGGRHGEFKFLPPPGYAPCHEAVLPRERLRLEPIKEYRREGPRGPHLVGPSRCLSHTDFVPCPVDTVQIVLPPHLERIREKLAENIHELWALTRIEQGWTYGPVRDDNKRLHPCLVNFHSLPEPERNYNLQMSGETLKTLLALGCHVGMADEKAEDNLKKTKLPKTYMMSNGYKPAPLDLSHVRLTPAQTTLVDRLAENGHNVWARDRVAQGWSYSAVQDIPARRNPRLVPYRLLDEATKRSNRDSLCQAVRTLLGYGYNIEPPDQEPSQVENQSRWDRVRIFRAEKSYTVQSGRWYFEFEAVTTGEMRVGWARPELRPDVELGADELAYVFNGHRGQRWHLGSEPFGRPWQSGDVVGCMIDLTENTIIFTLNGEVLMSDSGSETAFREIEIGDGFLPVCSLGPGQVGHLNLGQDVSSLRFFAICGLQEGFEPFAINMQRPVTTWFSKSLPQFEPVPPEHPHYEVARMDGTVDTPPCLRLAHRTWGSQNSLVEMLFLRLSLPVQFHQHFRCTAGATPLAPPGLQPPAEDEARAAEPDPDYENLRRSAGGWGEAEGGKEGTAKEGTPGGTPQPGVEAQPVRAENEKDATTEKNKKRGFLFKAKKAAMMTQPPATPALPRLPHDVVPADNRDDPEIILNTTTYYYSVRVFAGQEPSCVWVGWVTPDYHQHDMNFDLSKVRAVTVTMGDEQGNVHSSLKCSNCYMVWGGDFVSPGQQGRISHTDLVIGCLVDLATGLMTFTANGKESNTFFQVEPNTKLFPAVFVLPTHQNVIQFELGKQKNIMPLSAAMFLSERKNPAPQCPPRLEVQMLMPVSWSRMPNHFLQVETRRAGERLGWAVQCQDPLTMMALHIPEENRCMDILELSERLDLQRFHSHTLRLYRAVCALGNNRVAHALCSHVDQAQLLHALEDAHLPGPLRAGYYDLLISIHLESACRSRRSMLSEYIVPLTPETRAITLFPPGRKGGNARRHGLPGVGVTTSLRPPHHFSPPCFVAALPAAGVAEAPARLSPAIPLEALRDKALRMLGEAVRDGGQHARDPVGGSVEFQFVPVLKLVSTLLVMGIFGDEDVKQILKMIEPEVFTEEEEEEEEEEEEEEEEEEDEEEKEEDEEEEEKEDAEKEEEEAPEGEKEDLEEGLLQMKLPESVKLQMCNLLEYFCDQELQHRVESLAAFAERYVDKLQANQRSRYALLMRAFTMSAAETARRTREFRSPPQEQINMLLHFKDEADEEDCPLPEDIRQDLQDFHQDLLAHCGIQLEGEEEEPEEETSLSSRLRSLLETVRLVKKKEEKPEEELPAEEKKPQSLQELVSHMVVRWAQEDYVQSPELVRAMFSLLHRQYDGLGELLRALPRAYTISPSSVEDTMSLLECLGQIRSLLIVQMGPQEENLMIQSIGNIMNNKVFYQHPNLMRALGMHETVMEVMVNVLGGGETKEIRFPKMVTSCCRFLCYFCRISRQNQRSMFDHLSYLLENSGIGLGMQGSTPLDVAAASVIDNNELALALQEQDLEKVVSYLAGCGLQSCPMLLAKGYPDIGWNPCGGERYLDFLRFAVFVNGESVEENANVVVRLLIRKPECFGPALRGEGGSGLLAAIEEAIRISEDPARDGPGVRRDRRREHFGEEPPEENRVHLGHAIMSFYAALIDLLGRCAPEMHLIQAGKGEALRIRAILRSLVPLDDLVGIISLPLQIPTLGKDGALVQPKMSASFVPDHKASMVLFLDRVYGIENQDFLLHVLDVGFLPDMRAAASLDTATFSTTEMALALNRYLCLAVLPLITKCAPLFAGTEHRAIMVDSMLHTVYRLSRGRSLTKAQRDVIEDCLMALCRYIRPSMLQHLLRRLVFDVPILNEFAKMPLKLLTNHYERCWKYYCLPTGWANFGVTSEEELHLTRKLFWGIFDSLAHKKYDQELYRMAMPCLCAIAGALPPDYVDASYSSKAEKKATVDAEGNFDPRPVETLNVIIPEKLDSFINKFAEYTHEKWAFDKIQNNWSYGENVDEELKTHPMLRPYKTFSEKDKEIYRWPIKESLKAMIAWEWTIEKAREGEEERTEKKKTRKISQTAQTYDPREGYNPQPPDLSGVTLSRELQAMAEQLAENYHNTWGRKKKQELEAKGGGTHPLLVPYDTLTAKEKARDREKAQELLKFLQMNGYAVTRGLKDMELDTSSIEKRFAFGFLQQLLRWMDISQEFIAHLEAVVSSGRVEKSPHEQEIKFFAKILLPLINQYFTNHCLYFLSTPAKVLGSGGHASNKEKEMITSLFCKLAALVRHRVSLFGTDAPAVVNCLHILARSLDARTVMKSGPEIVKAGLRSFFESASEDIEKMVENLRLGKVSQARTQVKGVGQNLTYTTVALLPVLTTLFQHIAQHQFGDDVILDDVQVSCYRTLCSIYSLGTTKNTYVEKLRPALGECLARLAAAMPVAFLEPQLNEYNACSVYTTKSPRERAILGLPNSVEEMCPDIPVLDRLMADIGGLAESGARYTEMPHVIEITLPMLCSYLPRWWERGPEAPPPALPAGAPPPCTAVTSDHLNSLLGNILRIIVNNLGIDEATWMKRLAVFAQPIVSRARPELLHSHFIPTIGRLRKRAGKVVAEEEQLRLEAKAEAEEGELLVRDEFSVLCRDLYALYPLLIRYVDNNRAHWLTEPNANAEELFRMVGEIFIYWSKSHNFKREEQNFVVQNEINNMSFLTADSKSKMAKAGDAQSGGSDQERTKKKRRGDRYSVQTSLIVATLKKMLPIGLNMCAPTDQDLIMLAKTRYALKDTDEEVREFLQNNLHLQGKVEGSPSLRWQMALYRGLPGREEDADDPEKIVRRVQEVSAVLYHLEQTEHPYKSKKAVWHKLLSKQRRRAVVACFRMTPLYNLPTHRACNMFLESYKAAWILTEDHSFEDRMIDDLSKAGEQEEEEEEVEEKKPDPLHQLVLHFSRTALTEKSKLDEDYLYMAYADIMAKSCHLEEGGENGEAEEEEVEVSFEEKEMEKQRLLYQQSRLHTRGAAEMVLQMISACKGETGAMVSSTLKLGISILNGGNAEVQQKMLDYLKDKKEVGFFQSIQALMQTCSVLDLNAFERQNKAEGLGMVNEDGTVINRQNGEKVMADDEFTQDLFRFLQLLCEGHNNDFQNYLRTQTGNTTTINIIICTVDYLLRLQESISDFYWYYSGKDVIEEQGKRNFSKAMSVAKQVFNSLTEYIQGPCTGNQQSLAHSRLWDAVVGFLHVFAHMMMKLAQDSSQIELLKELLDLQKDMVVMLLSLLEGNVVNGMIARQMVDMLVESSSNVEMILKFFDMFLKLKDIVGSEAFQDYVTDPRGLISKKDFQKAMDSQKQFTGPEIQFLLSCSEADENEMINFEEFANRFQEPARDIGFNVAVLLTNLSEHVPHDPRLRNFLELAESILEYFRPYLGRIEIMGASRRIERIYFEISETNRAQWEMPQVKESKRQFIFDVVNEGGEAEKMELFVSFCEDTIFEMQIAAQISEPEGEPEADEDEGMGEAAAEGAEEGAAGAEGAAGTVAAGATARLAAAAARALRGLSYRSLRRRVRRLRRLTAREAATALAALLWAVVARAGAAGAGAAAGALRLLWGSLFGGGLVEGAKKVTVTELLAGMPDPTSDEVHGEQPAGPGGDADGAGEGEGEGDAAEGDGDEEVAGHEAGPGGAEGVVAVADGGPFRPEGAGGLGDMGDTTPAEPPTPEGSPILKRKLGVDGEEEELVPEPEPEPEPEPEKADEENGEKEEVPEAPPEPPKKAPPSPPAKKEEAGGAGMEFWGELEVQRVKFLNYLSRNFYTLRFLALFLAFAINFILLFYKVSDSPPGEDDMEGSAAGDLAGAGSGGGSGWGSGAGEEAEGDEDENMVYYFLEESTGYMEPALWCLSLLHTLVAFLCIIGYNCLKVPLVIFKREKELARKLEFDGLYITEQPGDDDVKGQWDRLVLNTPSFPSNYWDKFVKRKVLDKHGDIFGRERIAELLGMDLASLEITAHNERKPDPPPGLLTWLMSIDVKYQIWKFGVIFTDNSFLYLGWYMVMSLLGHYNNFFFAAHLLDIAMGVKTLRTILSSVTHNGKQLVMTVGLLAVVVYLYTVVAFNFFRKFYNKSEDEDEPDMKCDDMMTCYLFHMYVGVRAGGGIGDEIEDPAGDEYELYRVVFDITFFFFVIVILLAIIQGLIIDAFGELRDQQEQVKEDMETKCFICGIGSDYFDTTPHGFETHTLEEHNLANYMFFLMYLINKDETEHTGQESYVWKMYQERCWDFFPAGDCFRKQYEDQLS

Structure (SMILES) | IC50 [nM]
CC1CCC2(O)C3(OC4(O)C[C@]2(C)C2(O)[C@H](OC(=O)c5ccc[nH]5)C(O)(C(C)C)C4(C)C32O)[C@@H]1OC(=O)CCC(=O)O (some centres not stated) | > 1000
CC1CCC2(O)C3(OC4(O)C[C@]2(C)C2(O)[C@H](OC(=O)c5ccc[nH]5)C(O)(C(C)C)C4(C)C32O)[C@@H]1OC(=O)CCN=C(N)N (some centres not stated) | 1.1
CC1CCC2(O)C3(OC4(O)C[C@]2(C)C2(O)[C@H](OC(=O)c5ccc[nH]5)C(O)(C(C)C)C4(C)C32O)[C@@H]1OC(=O)CCN=C(NC(=O)OCc1ccccc1)NC(=O)OCc1ccccc1 (some centres not stated) | 43.6
CC1CCC2(O)C3(OC4(O)C[C@]2(C)C2(O)[C@H](OC(=O)c5ccc[nH]5)C(O)(C(C)C)C4(C)C32O)[C@@H]1OC(=O)CCN (some centres not stated) | 2.6
CC1CCC2(O)C3(OC4(O)C[C@]2(C)C2(O)[C@H](OC(=O)c5ccc[nH]5)C(O)(C(C)C)C4(C)C32O)[C@@H]1OC(=O)CNC(=O)OCc1ccccc1 (some centres not stated) | 4.8
CC1CCC2(O)C3(OC4(O)C[C@]2(C)C2(O)[C@H](OC(=O)c5ccc[nH]5)C(O)(C(C)C)C4(C)C32O)[C@@H]1OC(=O)CNC(=NC(=O)OCc1ccccc1)NC(=O)OCc1ccccc1 (some centres not stated) | 136
CNC(=O)CCC(=O)O[C@@H]1C(C)CCC2(O)C13OC1(O)C[C@]2(C)C2(O)[C@H](OC(=O)c4ccc[nH]4)C(O)(C(C)C)C1(C)C32O (some centres not stated) | 49.4
CC1CCC2(O)C3(OC4(O)C[C@]2(C)C2(O)[C@H](OC(=O)c5ccc[nH]5)C(O)(C(C)C)C4(C)C32O)[C@@H]1OC(=O)CCNC(=O)OCc1ccccc1 (some centres not stated) | 5.9
CC1CCC2(O)C3(OC4(O)C[C@]2(C)C2(O)[C@H](OC(=O)c5ccc[nH]5)C(O)(C(C)C)C4(C)C32O)[C@@H]1OC(=O)CNC(=N)N (some centres not stated) | 1.8
C=C1CCC2(O)C3(OC4(O)C[C@]2(C)C2(O)[C@H](OC(=O)c5ccc[nH]5)C(O)(C(C)C)C4(C)C32O)[C@@H]1O (stereo in doubt) [ANHYDRORYANIDINE] | > 10000
C=C1CCC2(O)C3(OC4(O)C[C@]2(C)C2(O)[C@H](OC(=O)c5ccc[nH]5)C(O)(C(C)C)C4(C)C32O)[C@@H]1O (stereo in doubt; 2) [ANHYDRORYANIDINE] | 8.9
CC1CCC2(O)C3(OC4(O)C[C@]2(C)C2(O)[C@H](OC(=O)c5ccc[nH]5)C(O)(C(C)C)C4(C)C32O)[C@@H]1OC(=O)CN (some centres not stated) [GLYCYLRYANODINE] | 1.8
